The results in this text go back to US9375434B2, “Antitumor effect potentiator composed of imidazooxazine compound” (Taiho Pharmaceutical Co., Ltd., priority 2012, dated 2016).

Test [1] deals with Human stomach cancer cell line (NCI-N87). The test can be described thus: Potentiation of antitumor effect of everolimus, NCI-N87 subcutaneous implant in nude mice (Test Example 7). To be noted: everolimus 5 mg/kg/day p.o. day 1-14. It counts as in vivo, BALB/cA Jcl-nu/nu mice. How it is done: As an index of antitumor effect, the TV at Day 15 was measured for each of the drug administration groups, and the relative tumor volume (RTV) relative to Day 1 and T/C (%) were calculated by the following formulas to evaluate the antitumor effect. […] In the figure, the asterisk represents a result having a statistically significant difference compared with the single-drug administration group.
FIG. 1 and Table 10 show the results. TV (mm^3)=(length×width^2)/2 RTV=(TV at Day 15)/(TV at Day 1) T/C(%)=(average RTV value of the test liquid administration group)/(average RTV value of the control group)×100
Human stomach cancer cell line (NCI-N87) was subcutaneously implanted into the right flank of 7-week-old male BALB/cA Jcl-nu/nu mice, and was used in the same manner as in Test Example 1.
In the group receiving only everolimus (IS Chemical Technology), the test liquid was prepared to enable administration at an everolimus dose of 5 mg/kg/day. A vehicle of 5% ethyl alcohol/5% PEG400/4% Tween 20/86% distilled water was used. In the groups receiving only Compound-I, the test liquid was prepared by diluting Compound-I with 0.5% HPMC to enable administration at a Compound-I dose of 16 mg/kg/day. In the combined administration group, Compound-I was administered at a dose of 16 mg/kg/day, and everolimus was administered at a dose of 5 mg/kg/day. Both Compound-I and everolimus were orally administered once a day for 14 days from Day 1, and the evaluation was performed in the same manner as in Test Example 1. FIG. 13 and Table 16 show the results.
In the figure and the table, the asterisk represents a result having a statistically significant difference compared with the single-drug administration group.

The subject of test [2] is Human ovarian cancer cell line (A2780). The test can be described thus: Potentiation of antitumor effect of irinotecan, A2780 subcutaneous implant in nude mice (Test Example 5). The class given is in vivo, BALB/cA Jcl-nu/nu mice. To be noted: irinotecan 75 mg/kg/day day 1, 8; route printed p.o. As for the experimental part:
As an index of antitumor effect, the TV at Day 15 was measured for each of the drug administration groups, and the relative tumor volume (RTV) relative to Day 1 and T/C (%) were calculated by the following formulas to evaluate the antitumor effect.
TV (mm^3)=(length×width^2)/2 RTV=(TV at Day 15)/(TV at Day 1) T/C(%)=(average RTV value of the test liquid administration group)/(average RTV value of the control group)×100
Human ovarian cancer cell line (A2780) was subcutaneously implanted into the right flank of 7-week-old male BALB/cA Jcl-nu/nu mice, and was used in the same manner as in Test Example 1. […] Further, the test liquid of Compound-I was prepared by adjusting its dose to 16 mg/kg/day.
The effect of the combined administration was also statistically determined in the same manner as in Test Example 1. […] FIG. 9 and Table 14 show the results. Further, the change in the body weight over time was evaluated as an index of toxicity in the same manner as in Test Example 1.

Test [3] deals with Human stomach cancer cell line (NCI-N87). The test can be described thus: Potentiation of antitumor effect of lapatinib, NCI-N87 subcutaneous implant in nude mice (Test Example 4). It counts as in vivo, BALB/cA Jcl-nu/nu mice. To be noted: lapatinib 100 mg/kg/day p.o. day 1-14 (q.d.). As for the experimental part:
In the figure, the asterisk represents a result having a statistically significant difference compared with the single-drug administration group. FIG. 1 and Table 10 show the results. […] Lapatinib was prepared by adjusting its dose to 100 mg/kg/day. Further, the test liquid of Compound-I was prepared by adjusting its dose to 16 mg/kg/day. […] The effect of the combined administration was also statistically determined in the same manner as in Test Example 1. In the figure and the table, the asterisk represents a result having a statistically significant difference compared with the single-drug administration group. FIG. 7 and Table 13 show the results.

For test [4], the system named is Human ovarian cancer cell line (A2780). The test can be described thus: Potentiation of antitumor effect of carboplatin, A2780 subcutaneous implant (Test Example 3). It counts as in vivo, nude rats. Conditions: carboplatin 50 mg/kg/day i.v. day 1, 8. As for the experimental part: In the figure, the asterisk represents a result having a statistically significant difference compared with the single-drug administration group. FIG. 1 and Table 10 show the results. […] Carboplatin was prepared by diluting a […] injection (Bristol-Myers Squibb, 50 mg/5 mL) two-fold with physiological saline to enable administration at a carboplatin dose of 50 mg/kg/day. Further, the test liquid of Compound-I was prepared by adjusting its dose to 16 mg/kg/day. […] The single-drug administration group was administered 0.5% HPMC or a physiological saline as a vehicle instead of Compound-I or carboplatin. […] FIG. 5 and Table 12 show the results. […] The effect of the combined administration was also statistically determined in the same manner as in Test Example 1. In the figure and the table, the asterisk represents a result having a statistically significant difference compared with the single-drug administration group.

The test system of test [5] is Human ovarian cancer A2780 cell line. Briefly: Potentiation of antitumor effect of paclitaxel, A2780 subcutaneous implant in nude mice (Test Example 1). It counts as in vivo, BALB/cA Jcl-nu/nu mice. To be noted: paclitaxel 60 mg/kg/day i.v. day 1, 8. As for the experimental part:
Human ovarian cancer A2780 cell line was subcutaneously implanted into the right flank of 7-week-old male BALB/cA Jcl-nu/nu mice. After the implant, the length (mm) and the width (mm) of the tumor were measured, and the tumor volume (TV) was calculated. Thereafter, the mice were divided into groups so that the average TV is equalized in each group. The day of grouping (n=5) is referred to as Day 0. […] Test liquids for the groups receiving only Compound-I were prepared by diluting Compound-I with 0.5% hydroxypropyl methylcellulose (HPMC) so as to enable administration at a Compound-I dose of 8 mg/kg/day, 16 mg/kg/day, and 24 mg/kg/day. […] In the groups receiving the two drugs, Compound-I was administered at doses of 8 mg/kg/day, 16 mg/kg/day, and 24 mg/kg/day, and paclitaxel was administered at a dose of 60 mg/kg/day. […] In the figure, the asterisk represents a result having a statistically significant difference compared with the single-drug administration group. FIG. 1 and Table 10 show the results.

Test [6] relates to Human stomach cancer cell line (NCI-N87). The test can be described thus: Potentiation of antitumor effect of paclitaxel, NCI-N87 subcutaneous implant in nude mice (Test Example 2). It counts as in vivo, BALB/cA Jcl-nu/nu mice. Conditions: paclitaxel 60 mg/kg/day i.v. day 1, 8. How it is done: In the figure, the asterisk represents a result having a statistically significant difference compared with the single-drug administration group. FIG. 1 and Table 10 show the results. […] Ltd.) was prepared to enable administration at a paclitaxel dose of 60 mg/kg/day. Further, test liquids for the groups receiving only Compound-I were prepared to enable administration at Compound-I doses of 8 mg/kg/day, 16 mg/kg/day, and 24 mg/kg/day. […] In the groups receiving the two drugs, Compound-I was administered at doses of 8 mg/kg/day, 16 mg/kg/day, and 24 mg/kg/day, and paclitaxel was administered at a dose of 60 mg/kg/day. The evaluation was performed in the same manner as in Test Example 1. The effect of the combined administration was also statistically determined in the same manner as in Test Example 1. In the figure and the table, the asterisk represents a result having a statistically significant difference compared with the single-drug administration group. FIG. 3 and Table 11 show the results.

Test [7] deals with Human ovarian cancer cell line (A2780). Briefly: Potentiation of antitumor effect of doxorubicin, A2780 subcutaneous implant in nude mice (Test Example 6). The class given is in vivo, BALB/cA Jcl-nu/nu mice. To be noted: doxorubicin 7 mg/kg/day day 1, 8. As for the experimental part:
In the groups receiving only Compound-I, the test liquid was prepared by diluting Compound-I with 0.5% HPMC to enable administration at a Compound-I dose of 16 mg/kg/day. […] The effect of the combined administration was also statistically determined in the same manner as in Test Example 1.

On to `CO[C@H]1C[C@@H]2CC[C@@H](C)[C@@](O)(O2)C(=O)C(=O)N2CCCC[C@H]2C(=O)O[C@H]([C@H](C)C[C@@H]2CC[C@@H](OCCO)[C@H](OC)C2)CC(=O)[C@H](C)/C=C(\C)[C@@H](O)[C@@H](OC)C(=O)[C@H](C)C[C@H](C)/C=C/C=C/C=C/1C` [Everolimus, everolimus, reference compound], for which, in test [1], the “RTV day 15 Mean ± SD” value stood at 1.32 ± 0.11 and the “T/C (%)” value was determined as 47.3%.
`CCc1c2c(nc3ccc(OC(=O)N4CCC(N5CCCCC5)CC4)cc13)-c1cc3c(c(=O)n1C2)COC(=O)[C@]3(O)CC` [irinotecan, reference compound]: the “RTV day 15 Mean ± SD” value in test [2] came to 11.92 ± 3.68.
In the case of `CS(=O)(=O)CCNCc1ccc(-c2ccc3ncnc(Nc4ccc(OCc5cccc(F)c5)c(Cl)c4)c3c2)o1` [Lapatinib, lapatinib, reference compound], in test [3], the “RTV day 15 Mean ± SD” value is 1.37 ± 0.28 and the “T/C (%)” value is on record as 51%.
Take `N.N.O=C([O-])C1(C(=O)[O-])CCC1.[Pt+2]` [Carboplatin, carboplatin, reference compound]: in test [4], the “RTV day 15 Mean ± SD” value was 20.99 ± 4.57 and the “T/C (%)” value worked out at 82%.
For `CC(=O)O[C@H]1C(=O)[C@@]2(C)[C@H]([C@H](OC(=O)c3ccccc3)[C@]3(O)C[C@H](OC(=O)[C@H](O)[C@@H](NC(=O)c4ccccc4)c4ccccc4)C(C)=C1C3(C)C)[C@]1(OC(C)=O)CO[C@@H]1C[C@@H]2O` [paclitaxel, reference compound], in test [5], the “RTV day 15 Mean ± SD” value is 6.96 ± 1.41 and the “T/C (%)” value came to 27%. In test [6], the “RTV day 15 Mean ± SD” value is 1.09 ± 0.40 and the “T/C (%)” value is recorded as 32%.
As for `COc1cccc2c1C(=O)c1c(O)c3c(c(O)c1C2=O)C[C@@](O)(C(=O)CO)C[C@@H]3O[C@H]1C[C@H](N)[C@H](O)[C@H](C)O1` [Doxorubicine, doxorubicin, reference compound], in test [7], the “T/C (%)” value came out at 45%.
